Like-named read-outs stand apart in the source and are kept apart here.
Biological target: T1, Tre6Pase activity of intact trehalose synthase (Saccharomyces cerevisiae, UniProt P31688)
T1 construct: Intact trehalose synthase was purified from commercial baker's yeast; made in house; host or cells: commercial baker's yeast (native enzyme purified, not recombinant)
T1 sequence (P31688 1-896): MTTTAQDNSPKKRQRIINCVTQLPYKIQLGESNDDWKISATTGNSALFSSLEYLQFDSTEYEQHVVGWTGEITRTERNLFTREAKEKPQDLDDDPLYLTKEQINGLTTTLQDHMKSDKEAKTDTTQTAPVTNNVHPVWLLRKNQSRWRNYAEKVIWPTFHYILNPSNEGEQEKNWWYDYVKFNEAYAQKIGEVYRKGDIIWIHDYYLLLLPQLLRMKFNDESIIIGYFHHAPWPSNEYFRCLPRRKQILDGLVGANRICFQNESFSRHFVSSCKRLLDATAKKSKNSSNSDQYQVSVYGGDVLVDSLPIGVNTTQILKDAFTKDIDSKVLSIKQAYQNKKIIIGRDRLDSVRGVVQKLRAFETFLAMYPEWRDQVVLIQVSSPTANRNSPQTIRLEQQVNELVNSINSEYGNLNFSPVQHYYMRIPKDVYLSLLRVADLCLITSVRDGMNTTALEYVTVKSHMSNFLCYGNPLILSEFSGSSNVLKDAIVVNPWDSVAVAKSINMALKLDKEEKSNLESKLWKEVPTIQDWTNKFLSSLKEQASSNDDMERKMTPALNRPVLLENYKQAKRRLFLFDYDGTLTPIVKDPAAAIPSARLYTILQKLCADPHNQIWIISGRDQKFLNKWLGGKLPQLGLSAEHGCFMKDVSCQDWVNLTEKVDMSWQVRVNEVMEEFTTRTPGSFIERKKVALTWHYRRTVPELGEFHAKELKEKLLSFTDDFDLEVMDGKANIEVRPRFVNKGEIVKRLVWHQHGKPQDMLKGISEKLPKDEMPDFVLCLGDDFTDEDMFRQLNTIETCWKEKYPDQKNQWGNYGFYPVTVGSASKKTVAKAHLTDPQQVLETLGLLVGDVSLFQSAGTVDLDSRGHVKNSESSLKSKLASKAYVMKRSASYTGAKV
T1 sequence (Q00764 1-495 partner): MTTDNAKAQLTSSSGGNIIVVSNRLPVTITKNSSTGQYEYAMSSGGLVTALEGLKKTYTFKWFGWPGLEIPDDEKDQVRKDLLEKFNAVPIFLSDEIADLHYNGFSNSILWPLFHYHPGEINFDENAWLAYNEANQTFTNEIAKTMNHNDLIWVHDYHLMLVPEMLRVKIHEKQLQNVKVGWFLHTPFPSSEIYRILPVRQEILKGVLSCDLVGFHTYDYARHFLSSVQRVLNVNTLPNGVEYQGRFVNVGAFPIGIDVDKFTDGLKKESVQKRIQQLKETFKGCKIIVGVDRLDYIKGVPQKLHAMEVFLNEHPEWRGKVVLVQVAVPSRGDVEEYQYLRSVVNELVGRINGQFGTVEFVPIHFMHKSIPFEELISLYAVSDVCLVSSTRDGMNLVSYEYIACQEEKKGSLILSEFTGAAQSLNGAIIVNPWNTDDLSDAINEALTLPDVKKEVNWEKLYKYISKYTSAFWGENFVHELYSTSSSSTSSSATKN
T1 sequence (P38427 1-1098 partner): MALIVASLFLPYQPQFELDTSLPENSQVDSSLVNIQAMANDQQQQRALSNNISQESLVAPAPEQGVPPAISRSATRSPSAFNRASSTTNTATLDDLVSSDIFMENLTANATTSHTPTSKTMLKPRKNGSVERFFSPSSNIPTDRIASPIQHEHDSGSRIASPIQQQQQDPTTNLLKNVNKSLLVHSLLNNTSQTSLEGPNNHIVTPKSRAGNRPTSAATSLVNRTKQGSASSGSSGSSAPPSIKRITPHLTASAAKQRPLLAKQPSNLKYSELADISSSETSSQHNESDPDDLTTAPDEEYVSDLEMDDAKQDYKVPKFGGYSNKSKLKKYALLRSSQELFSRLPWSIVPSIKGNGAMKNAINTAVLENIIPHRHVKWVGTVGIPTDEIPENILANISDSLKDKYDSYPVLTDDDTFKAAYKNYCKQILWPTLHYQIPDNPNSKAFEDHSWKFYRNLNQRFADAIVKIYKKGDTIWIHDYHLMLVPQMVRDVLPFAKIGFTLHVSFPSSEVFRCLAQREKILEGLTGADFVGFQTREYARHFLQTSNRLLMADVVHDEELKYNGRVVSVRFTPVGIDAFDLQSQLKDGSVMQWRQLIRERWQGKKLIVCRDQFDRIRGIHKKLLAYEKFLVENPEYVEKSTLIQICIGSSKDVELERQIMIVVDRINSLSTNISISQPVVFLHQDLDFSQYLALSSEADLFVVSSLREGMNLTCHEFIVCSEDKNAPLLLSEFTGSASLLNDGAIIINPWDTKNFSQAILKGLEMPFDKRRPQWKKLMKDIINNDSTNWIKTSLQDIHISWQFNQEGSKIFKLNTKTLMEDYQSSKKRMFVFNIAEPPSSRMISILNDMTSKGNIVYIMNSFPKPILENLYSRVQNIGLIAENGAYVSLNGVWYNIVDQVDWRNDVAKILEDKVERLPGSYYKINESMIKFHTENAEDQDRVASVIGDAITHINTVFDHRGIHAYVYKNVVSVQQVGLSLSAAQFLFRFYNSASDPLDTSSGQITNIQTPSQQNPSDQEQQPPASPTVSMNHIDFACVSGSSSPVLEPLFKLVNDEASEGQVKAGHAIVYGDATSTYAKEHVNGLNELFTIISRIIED
Assay: Tre6Pase assay of intact trehalose synthase
Assay type: biochemical, baker's yeast
Procedure: With microbial materials, Tre6Pase and Tre6P synthase standard assays and other kinetic measurements were made as described by Londesborough & Vuorio [(1991) loc. cit.] except that the standard Tre6P synthase assay mixture contained 5 mM F6P unless stated otherwise.
In one experiment intact trehalose synthase (0.28 Tre6P synthase units, ≈9.4 μg) was incubated with or without 0.5 μg of trypsin at 30° C. in 250 μl of 13 mM HEPES pH 7.0 containing 1 mM MgCl2, 0.5 mM EDTA, 0.5 mM dithiothreitol, 0.2 M NaCl and 0.5 mM benzamidine. Its Tre6P synthase activity was determined at intervals using standard assay mixtures (containing 5 mM F6P) containing no or 4 mM K phosphate pH 6.8, and samples were prepared for SDS-PAGE analysis immediately before and 48 min after addition of the trypsin.
Intact trehalose synthase was prepared as in Example 1. Kinetic assays were done at 30° C. as described in General Methods and Materials.

Row | Compound | effect on Tre6Pase activity (in the absence of phosphate, intact enzyme) | inhibition at 5000 µM (read-out: inhibition of Tre6Pase activity, 5 mM F6P, saturating phosphate concentrations, intact enzyme) | inhibition at 5000 µM (read-out: inhibition of Tre6Pase activity, 5 mM F6P, sub-optimal phosphate concentrations, intact enzyme) | EC50 (initial rates, intact enzyme, read-out: half maximal activation of Tre6Pase by phosphate)
1 | O=C(CO)[C@@H](O)[C@H](O)[C@H](O)COP(=O)(O)O [Transformant F6P, Fructose 6-phosphate] | did not affect | 10 to 15% | 20 to 30% | –
2 | O=P(O)(O)O [phosphate, K phosphate] | – | – | – | 600 µM
